Measured values as given in the SangsterLogP compilation.

logP	Structure (SMILES)
0.38	Nc1nc(Cl)nc2c1ccn2[C@H]1C[C@H](O)[C@@H](CO)O1
0.35	Nc1nc(Cl)nc2nc[nH]c12
1.16	CCn1cnc2c(N)nc(Cl)nc21
0.55	OC[C@H]1O[C@@H](n2nnc3ccccc32)C[C@@H]1O
0.9	Nc1nc(Cl)nc2c1nc(Br)n2C1CC(O)C(CO)O1 (stereo not given)
0.38	Nc1nc(Cl)nc2c1cnn2[C@H]1C[C@H](O)[C@@H](CO)O1
0.91	CNc1nc(Cl)nc2c1ncn2[C@H]1C[C@H](O)[C@@H](CO)O1
2.48	OCC1OC(n2cnc3c(NCc4ccccc4)nc(Cl)nc32)CC1O (stereo not given)
-0.68	Nc1ncnc2c1ncn2[C@H]1C[C@H](O)[C@@H](CO)O1
0.41	Nc1nc(Br)nc2c1ncn2C1CC(O)C(CO)O1 (stereo not given)
-0.01	Nc1ncnc2ncn([C@H]3C[C@H](O)[C@@H](CO)O3)c12
3	OCC1OC(n2cnc3c(NC4CCCCC4)nc(Cl)nc32)CC1O (stereo not given)
0.47	OCCNc1nc(Cl)nc2c1ncn2[C@H]1C[C@@H](O)[C@@H](CO)O1
1.06	OC[C@H]1O[C@@H](n2nc3ccccc3n2)C[C@@H]1O
0.69	OC[C@H]1O[C@@H](n2cnc3ccccc32)C[C@@H]1O
